From US9492471B2, “Methods of treating a disease or disorder associated with Bruton'S Tyrosine Kinase” (Celgene Avilomics Research, Inc., priority 2013, dated 2016)
Read-outs that look alike come from different tables or passages of the source.

How the values were obtained:
Experiment in all cases: HotSpot kinase profiling
Format in all cases: biochemical
MAPKAPK2 = biological target: T1, MAPKAPK2 (Homo sapiens, UniProt P49137)
T1 construct: purchased Reaction Biology Corp
How it was run: (§1)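 P81 filtration radiometric readout; 2 h incubation at room temperature; 0.1% phosphoric acid wash; DMSO negative control; % inhibition, mean of replicate runs.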

TYK2 = biological target: T2, TYK2 (Homo sapiens, UniProt P29597)
T2 construct: purchased Reaction Biology Corp
How it was run: as §1

CDK6/cyclin D3 = biological target: T3, CDK6/cyclin D3 (Homo sapiens, UniProt Q00534)
T3 construct: purchased Reaction Biology Corp
How it was run: as §1

GRK3 = biological target: T4, GRK3 (Homo sapiens, UniProt P35626)
T4 construct: purchased Reaction Biology Corp
T4 sequence (P35626 1-688): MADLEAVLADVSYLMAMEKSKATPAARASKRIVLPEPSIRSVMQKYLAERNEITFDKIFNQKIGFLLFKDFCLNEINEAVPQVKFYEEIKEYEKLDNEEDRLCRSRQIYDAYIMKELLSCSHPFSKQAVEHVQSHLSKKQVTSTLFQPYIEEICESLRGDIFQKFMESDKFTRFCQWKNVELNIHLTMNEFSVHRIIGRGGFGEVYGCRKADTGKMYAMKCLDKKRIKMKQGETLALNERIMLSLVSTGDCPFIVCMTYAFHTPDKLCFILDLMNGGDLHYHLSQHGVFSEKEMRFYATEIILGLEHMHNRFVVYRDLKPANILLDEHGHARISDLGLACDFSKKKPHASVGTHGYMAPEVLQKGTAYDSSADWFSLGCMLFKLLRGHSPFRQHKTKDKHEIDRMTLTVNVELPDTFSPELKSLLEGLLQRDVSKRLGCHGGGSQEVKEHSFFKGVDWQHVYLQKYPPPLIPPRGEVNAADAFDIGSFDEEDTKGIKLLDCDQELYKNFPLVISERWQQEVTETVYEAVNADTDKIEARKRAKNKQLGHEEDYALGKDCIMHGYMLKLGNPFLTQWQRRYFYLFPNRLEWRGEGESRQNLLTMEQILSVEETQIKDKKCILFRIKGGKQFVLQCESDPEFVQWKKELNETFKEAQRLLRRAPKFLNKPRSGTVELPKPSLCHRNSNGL
How it was run: as §1

TAOK2/TAO1 = biological target: T5, TAOK2/TAO1 (Homo sapiens, UniProt Q9UL54)
T5 construct: purchased Reaction Biology Corp
T5 sequence (Q9UL54 1-1235): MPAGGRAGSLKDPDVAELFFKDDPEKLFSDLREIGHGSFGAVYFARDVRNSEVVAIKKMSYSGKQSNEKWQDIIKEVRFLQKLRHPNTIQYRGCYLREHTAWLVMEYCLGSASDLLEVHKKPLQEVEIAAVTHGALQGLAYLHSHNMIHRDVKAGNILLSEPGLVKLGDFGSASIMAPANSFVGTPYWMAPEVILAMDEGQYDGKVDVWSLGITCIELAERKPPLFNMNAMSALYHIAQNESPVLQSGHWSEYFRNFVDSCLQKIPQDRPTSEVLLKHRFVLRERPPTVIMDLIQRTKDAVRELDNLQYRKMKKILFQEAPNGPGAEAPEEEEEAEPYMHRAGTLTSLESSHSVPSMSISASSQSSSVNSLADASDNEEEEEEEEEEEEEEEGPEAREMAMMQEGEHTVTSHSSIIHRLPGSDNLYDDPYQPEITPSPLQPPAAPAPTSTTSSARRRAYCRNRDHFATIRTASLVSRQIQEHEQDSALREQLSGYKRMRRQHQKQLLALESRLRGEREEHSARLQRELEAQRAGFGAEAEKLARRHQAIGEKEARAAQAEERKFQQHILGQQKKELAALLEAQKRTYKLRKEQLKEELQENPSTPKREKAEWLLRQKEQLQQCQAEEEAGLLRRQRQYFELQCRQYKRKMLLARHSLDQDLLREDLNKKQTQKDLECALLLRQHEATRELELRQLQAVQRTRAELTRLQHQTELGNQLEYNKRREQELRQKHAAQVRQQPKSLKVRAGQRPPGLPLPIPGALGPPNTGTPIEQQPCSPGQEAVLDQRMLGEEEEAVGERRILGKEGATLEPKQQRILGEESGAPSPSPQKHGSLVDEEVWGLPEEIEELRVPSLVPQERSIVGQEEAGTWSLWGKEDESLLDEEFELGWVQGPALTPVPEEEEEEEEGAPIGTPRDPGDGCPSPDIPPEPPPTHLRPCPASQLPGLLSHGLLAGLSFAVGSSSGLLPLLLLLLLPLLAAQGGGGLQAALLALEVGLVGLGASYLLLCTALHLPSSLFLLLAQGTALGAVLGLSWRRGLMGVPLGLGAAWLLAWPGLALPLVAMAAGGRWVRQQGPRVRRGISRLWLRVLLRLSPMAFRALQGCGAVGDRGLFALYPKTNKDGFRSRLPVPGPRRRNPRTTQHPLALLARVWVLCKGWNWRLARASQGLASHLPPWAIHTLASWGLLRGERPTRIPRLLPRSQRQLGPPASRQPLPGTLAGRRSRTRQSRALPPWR
How it was run: as §1

[1] = read-out: % Enzyme Activity (relative to DMSO controls) Run 1
[2] = read-out: % Enzyme Activity (relative to DMSO controls) Run 2

T1 sequence (P49137 whole entry): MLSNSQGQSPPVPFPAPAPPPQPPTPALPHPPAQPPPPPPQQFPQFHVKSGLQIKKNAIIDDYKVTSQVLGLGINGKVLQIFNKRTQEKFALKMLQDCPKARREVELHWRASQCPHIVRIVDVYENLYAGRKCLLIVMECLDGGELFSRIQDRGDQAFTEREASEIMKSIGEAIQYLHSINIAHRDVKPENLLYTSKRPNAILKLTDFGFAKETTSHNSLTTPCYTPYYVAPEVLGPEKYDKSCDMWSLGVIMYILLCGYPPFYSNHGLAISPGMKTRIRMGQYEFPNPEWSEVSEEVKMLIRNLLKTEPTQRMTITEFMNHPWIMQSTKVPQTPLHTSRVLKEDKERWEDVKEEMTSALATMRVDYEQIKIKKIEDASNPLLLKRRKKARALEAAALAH
T2 sequence (P29597 whole entry): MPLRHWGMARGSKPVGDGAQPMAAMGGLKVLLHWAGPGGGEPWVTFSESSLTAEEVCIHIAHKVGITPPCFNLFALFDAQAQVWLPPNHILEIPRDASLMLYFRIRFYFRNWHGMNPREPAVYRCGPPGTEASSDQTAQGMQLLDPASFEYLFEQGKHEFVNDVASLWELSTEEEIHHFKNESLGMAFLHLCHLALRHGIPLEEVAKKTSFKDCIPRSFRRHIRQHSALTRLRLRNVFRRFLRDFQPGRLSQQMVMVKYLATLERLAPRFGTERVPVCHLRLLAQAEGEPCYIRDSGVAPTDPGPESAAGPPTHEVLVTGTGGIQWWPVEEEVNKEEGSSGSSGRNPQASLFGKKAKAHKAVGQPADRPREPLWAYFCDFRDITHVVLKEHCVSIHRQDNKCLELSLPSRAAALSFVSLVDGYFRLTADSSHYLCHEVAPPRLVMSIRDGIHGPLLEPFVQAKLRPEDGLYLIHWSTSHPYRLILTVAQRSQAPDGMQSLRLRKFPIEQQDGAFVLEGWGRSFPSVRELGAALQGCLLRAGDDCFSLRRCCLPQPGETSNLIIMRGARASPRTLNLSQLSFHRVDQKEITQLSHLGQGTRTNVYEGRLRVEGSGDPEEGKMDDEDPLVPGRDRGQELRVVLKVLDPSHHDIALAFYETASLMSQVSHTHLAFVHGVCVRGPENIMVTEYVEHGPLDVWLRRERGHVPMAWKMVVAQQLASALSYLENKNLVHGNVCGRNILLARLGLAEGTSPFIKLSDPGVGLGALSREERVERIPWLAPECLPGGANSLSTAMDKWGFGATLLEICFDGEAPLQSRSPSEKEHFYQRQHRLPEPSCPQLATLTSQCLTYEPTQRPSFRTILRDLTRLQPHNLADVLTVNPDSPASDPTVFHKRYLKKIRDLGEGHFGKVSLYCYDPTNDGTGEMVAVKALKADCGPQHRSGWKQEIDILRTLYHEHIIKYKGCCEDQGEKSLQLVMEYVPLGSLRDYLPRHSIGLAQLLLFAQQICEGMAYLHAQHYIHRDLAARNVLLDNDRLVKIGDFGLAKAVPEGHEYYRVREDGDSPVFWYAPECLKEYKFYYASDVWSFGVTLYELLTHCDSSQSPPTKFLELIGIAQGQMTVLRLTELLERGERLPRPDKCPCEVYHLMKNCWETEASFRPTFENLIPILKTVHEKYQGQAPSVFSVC
T3 sequence (Q00534 whole entry): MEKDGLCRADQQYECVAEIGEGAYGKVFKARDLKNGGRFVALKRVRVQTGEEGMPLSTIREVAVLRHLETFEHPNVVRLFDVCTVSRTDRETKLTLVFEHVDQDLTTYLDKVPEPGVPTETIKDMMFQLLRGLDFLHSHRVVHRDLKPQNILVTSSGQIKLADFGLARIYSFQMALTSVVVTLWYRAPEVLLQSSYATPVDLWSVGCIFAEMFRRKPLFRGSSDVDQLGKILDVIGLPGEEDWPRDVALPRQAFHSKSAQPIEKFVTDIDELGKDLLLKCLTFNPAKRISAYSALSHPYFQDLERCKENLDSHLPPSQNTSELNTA
T3 sequence (P30281 whole entry partner): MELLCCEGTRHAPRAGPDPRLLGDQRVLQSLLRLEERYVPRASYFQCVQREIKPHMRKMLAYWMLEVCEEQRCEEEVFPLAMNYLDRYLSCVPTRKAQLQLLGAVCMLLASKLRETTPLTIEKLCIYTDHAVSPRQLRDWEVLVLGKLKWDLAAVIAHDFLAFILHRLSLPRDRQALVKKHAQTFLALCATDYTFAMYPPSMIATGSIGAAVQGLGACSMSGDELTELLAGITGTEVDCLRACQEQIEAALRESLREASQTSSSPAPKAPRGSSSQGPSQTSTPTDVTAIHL

`C=CC(=O)Nc1cccc(Nc2nc(Nc3ccc(OCCOC)c(F)c3)ncc2F)c1` [Compound 2] was tested, and the inhibition at 3 µM (MAPKAPK2) was -7.86%, the remaining activity at 3 µM (MAPKAPK2; [1]) was 110% and the remaining activity at 3 µM (MAPKAPK2; [2]) was 106%. It also gave an inhibition at 3 µM (TYK2) of 52.6%, a remaining activity at 3 µM (TYK2; [1]) of 48.2% and a remaining activity at 3 µM (TYK2; [2]) of 46.6%. It also gave an inhibition at 3 µM (CDK6/cyclin D3) of 0.16%, a remaining activity at 3 µM (CDK6/cyclin D3; [1]) of 99.5% and a remaining activity at 3 µM (CDK6/cyclin D3; [2]) of 100%. It also gave an inhibition at 3 µM (GRK3) of -0.2%, a remaining activity at 3 µM (GRK3; [1]) of 99.5% and a remaining activity at 3 µM (GRK3; [2]) of 101%. For the same compound, the inhibition at 3 µM (TAOK2/TAO1) was 3.53%, the remaining activity at 3 µM (TAOK2/TAO1; [1]) was 98.5% and the remaining activity at 3 µM (TAOK2/TAO1; [2]) was 94.4%.
